Assay results published in patent US7816408B2, “Calcium receptor active compounds” (NPS Pharmaceuticals, Inc., priority 2002, dated 2010).

Assays:
human calcium receptor = target: T1, human calcium receptor (Homo sapiens, UniProt P41180); assay: Activity on calcium receptors: fluo-3 fluorescence in HEK293 cells transfected with human calcium receptor gene; format: cell-based; conditions: HEK293 cells transfected with plasmid pHuPCaR4.0 (human calcium receptor gene), loaded with fluo-3; 1 mM CaCl2, 1 mM MgCl2
T1 construct: expressed in transfected cells; host or cells: HEK293
T1 sequence (P41180 20-1078): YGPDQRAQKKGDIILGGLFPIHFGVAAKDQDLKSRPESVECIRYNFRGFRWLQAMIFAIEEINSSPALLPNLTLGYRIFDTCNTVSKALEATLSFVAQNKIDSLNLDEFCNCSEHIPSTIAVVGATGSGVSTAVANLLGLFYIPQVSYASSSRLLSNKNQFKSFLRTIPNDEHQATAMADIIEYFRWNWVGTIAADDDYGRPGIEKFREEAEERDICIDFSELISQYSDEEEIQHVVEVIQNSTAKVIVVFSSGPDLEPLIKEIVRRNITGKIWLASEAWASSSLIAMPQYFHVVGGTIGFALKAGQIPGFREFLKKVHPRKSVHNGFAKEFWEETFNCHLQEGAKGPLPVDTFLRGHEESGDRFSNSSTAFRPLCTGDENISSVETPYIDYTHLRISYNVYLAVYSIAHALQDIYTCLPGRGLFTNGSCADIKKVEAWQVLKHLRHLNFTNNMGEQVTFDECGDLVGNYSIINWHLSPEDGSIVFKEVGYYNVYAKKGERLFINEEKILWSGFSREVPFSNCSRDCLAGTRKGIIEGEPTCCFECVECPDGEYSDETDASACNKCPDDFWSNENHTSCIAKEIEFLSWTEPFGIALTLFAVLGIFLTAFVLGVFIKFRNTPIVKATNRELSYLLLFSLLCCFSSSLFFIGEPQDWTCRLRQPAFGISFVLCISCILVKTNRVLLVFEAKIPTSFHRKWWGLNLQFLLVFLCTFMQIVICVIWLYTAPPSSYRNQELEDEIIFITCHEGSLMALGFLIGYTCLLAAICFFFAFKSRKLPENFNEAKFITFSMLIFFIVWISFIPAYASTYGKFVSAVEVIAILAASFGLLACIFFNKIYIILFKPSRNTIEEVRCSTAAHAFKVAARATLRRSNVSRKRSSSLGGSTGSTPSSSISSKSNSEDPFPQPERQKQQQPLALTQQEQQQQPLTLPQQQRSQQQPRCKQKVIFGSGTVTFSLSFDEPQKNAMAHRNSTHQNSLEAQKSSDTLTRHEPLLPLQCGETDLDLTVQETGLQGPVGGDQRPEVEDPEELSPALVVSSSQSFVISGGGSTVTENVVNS
In short: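 HEK293 cells transfected with human calcium receptor plasmid, loaded 1 h at 37 °C with about 5 μM fluo-3/AM. Cells then rinsed into HEPES-buffered HBSS with 1 mM CaCl2 and 1 mM MgCl2. Fluorescence read at 485/540 nm after compound addition.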

normal male SD rats = assay: Plasma Ca^2+ level of rats after single oral administration; format: in vivo; conditions: rat, mean of six animals, vehicle 10% cyclodextrin (** 1% sodium-CMC); for Plasma Ca^2+ (mmol/l) 1 hr: 1 hr after single oral dose 30 μmol/kg; for Plasma Ca^2+ (mmol/l) 2 hr: 2 hr after single oral dose 30 μmol/kg; for Plasma Ca^2+ (mmol/l) 4 hr: 4 hr after single oral dose 30 μmol/kg; for Plasma Ca^2+ (mmol/l) 8 hr: 8 hr after single oral dose 30 μmol/kg
Procedure: The compound of the present invention was administered to rats so as to examine the effects of the compound on the plasma calcium ion level and serum PTH level. The test was performed by orally administering single dose of the compound of the invention or a control compound to normal male SD rats with six animals in each group.
To the group 1 was administered as a control a 10% cyclodextrin aqueous solution in a dose of 2.5 ml/kg. To the group 2 was administered as a reference (R)-N-(3-(2-chlorophenyl)propyl)-1-(3-methoxyphenyl)ethylamine (KRN568) dissolved in a 10% cyclodextrin aqueous solution in a dose of 30 μmol/kg. To the group 3 was administered the compound of the present invention dissolved in a 10% cyclodextrin aqueous solution in a dose of 30 μmol/kg, provided that 1% sodium-CMC aqueous solution was used in place of 10% cyclodextrin aqueous solution for the compounds marked with ** in Table 2.
Blood of each rat was collected from the tail tip before the administration and 30 minutes and 1, 2, 4, 8 and 24 hours thereafter (or at the time indicated in Table 2), and the plasma Ca^2+ level and serum PTH level were measured. The data of the serum PTH level were statistically processed by the multiple comparison analysis in accordance with Steel's calibration by using the group 1 as the control.

SMILES | EC50 (human calcium receptor) [nM] | Plasma Ca^2+ (mmol/l) 1 hr (normal male SD rats) [mmol/L] | Plasma Ca^2+ (mmol/l) 2 hr (normal male SD rats) [mmol/L] | Plasma Ca^2+ (mmol/l) 4 hr (normal male SD rats) [mmol/L] | Plasma Ca^2+ (mmol/l) 8 hr (normal male SD rats) [mmol/L] | Plasma Ca^2+ (mmol/l) 0 hr (normal male SD rats; 0 hr = before oral administration of 30 μmol/kg) [mmol/L] | Plasma Ca^2+ (mmol/l) 23 hr (footnote *c, 24 hr column) (normal male SD rats; 23 hr after single oral dose 30 μmol/kg)
COc1ccc(CN(Cc2ccc(OC)cc2)C(=O)CCN[C@H](C)c2cccc3ccccc23)cc1 [Compound K-2270, N1,N1-di(4-methoxybenzyl)-3-{[(1R)-1-(1-naphthyl)ethyl]amino}propanamide] | 140 | 1.355 | 1.238 | 1.088 | 1.175 | – | –
C[C@@H](NCCC(=O)N(Cc1ccccc1)Cc1ccc(Cl)cc1)c1cccc2ccccc12 [Compound K-2247, N1-benzyl-N1-(4-chlorobenzyl)-3-{[(1R)-1-(1-naphthyl)ethyl]amino}propanamide] | 130 | 1.378 | 1.298 | 1.175 | 1.217 | – | –
C[C@@H](NCCCCCCCSc1c(F)c(F)c(C(F)(F)F)c(F)c1F)c1cccc2ccccc12 [Compound K-2292, N-[(1R)-1-(1-naphthyl)ethyl]-N-(7-{[2,3,5,6-tetrafluoro-4-(trifluoromethyl)phenyl]thio}heptyl)amine] | 74 | 1.375 | 1.252 | 1.152 | 1.108 | – | –
Cc1ccc(SCCCCCN[C@H](C)c2cccc3ccccc23)cc1 [Compound K-2305] | 110 | 1.242 | 1.170 | 1.098 | 1.202 | 1.415 | –
C[C@@H](NCCC(=O)N(Cc1ccc(Cl)c(Cl)c1)Cc1ccc(Cl)c(Cl)c1)c1cccc2ccccc12 [Compound K-2265, N1,N1-di(3,4-dichlorobenzyl)-3-{[(1R)-1-(1-naphthyl)ethyl]amino}propanamide] | 61 | 1.430 | 1.363 | 1.260 | 1.218 | – | –
Cc1ccc(CN(Cc2ccc(C)cc2)C(=O)CCN[C@H](C)c2cccc3ccccc23)cc1 [Compound K-2300, N1,N1-di(4-methylbenzyl)-3-{[(1R)-1-(1-naphthyl)ethyl]amino}propanamide] | 140 | 1.293 | 1.158 | 0.958 | 1.022 | – | 1.397*^c mmol/l
COc1ccc(CN(Cc2ccc(C(F)(F)F)cc2)C(=O)CCN[C@H](C)c2cccc3ccccc23)cc1 [Compound K-2290, N1-(4-methoxybenzyl)-N1-[4-(trifluoromethyl)benzyl)-3-{[(1R)-1-(1-naphthyl)ethyl]amino}propanamide] | 100 | 1.428 | 1.248 | 1.063 | 1.055 | – | –
